Test results reported in the NIST ThermoML archive (doi:10.1021/je049824c).
± gives the expanded uncertainty stated by the source.

How the values were obtained:
[1] = Liquid, Closed cell (Static) method
[2] = excess molar enthalpy (molar enthalpy of mixing); xn = mol fraction of the nth substance listed; details: 14100 kPa, Liquid, Flow calorimetry

COC(=O)C(C)O (stereo not drawn) [methyl 2-hydroxypropanoate]
[1]
Details | vapor or sublimation pressure [kPa]
283.15 K | 0.17 ± 0.04
293.15 K | 0.43 ± 0.04
303.15 K | 0.87 ± 0.04

COC(=O)C(C)O (stereo not drawn) [methyl 2-hydroxypropanoate] + O
excess molar enthalpy [kcal/mol], [2]
Details | 303.15 K | 333.15 K
x2 = 0.0632 | 0.004 ± 0.000215 | -0.00394 ± 0.000215
x2 = 0.1202 | 0.00357 ± 0.000213 | -0.00928 ± 0.000311
x2 = 0.219 | -0.000437 ± 0.000189 | -0.0211 ± 0.000526
x2 = 0.3016 | -0.00462 ± 0.000222 | -0.0288 ± 0.000693
x2 = 0.3718 | -0.00866 ± 0.000287 | -0.0345 ± 0.000813
x2 = 0.4321 | -0.0134 ± 0.000382 | -0.0398 ± 0.000908
x2 = 0.5083 | -0.0221 ± 0.00055 | -0.0479 ± 0.00108
x2 = 0.5711 | -0.0295 ± 0.000693 | -0.0552 ± 0.00124
x2 = 0.6397 | -0.0384 ± 0.000884 | -0.0643 ± 0.00143
x2 = 0.7195 | -0.0493 ± 0.00112 | -0.0756 ± 0.00167
x2 = 0.7803 | -0.0572 ± 0.00129 | -0.0839 ± 0.00184
x2 = 0.8419 | -0.0642 ± 0.00143 | -0.0901 ± 0.00198
x2 = 0.8988 | -0.0647 ± 0.00143 | -0.0891 ± 0.00196
x2 = 0.9411 | -0.0552 ± 0.00124 | -0.0767 ± 0.0017
x2 = 0.9796 | -0.0288 ± 0.000693 | -0.0394 ± 0.000908
